Measured values as given in patent publication US11214803B2, “Modulators of YAP1 expression” (Ionis Pharmaceuticals, Inc., priority 2019, dated 2022).
Strand notation (5' to 3'): a small letter for the sugar, then the base; units joined by * are phosphorothioate-linked, units joined directly phosphodiester-linked; [ ] holds rarer units or linkages, { } end groups; capitals alone tell only the bases. k = constrained ethyl (cEt); [5mC] = 5-methylcytosine; d = 2'-deoxy (DNA)

Assays:
Yap1 mRNA [1] = test: Yap1 mRNA in SNU-899 cells, RNA analysis (Example 43); assay type: cell-based, human; conditions: free uptake, approximately 48 hours
Procedure: Modified oligonucleotides described in the studies above were tested at various doses in laryngeal squamous cell carcinoma cell line SNU-899. A control oligonucleotide 792169, described herein above, was also tested.
(§1) Cultured SNU-899 cells at a density of 5000 cells per well were treated using free uptake with modified oligonucleotides diluted to concentrations described in the tables below. After approximately 48 hours, Yap1 mRNA levels were measured as previously described using the Human Yap1 primer-probe set RTS4814. Yap1 mRNA levels were normalized to actin-beta content, as measured by primer probe set RTS5002. Results are presented in the tables below as percent control of the amount of Yap1 mRNA relative to untreated control cells (% UTC).

Yap1 mRNA [2] = test: Yap1 mRNA in NCI H747 cells, RNA analysis (Example 31); assay type: cell-based, human; conditions: free uptake, approximately 48 hours
Procedure: Modified oligonucleotides described in the studies above were tested at various doses in colorectal adenocarcinoma cell line NCI H747. A control oligonucleotide 792169 was also tested.
as §1, with “NCI H747” for “SNU-899”, “10,000” for “5000”

Yap1 mRNA [3] = test: Yap1 mRNA in SCC-4 cells, RNA analysis (Example 39); assay type: cell-based, human; conditions: free uptake, approximately 48 hours
Procedure: Modified oligonucleotides described in the studies above were tested at various doses in tongue squamous cell carcinoma cell line SCC 4. A control oligonucleotide 792169, described herein above, was also tested.
as §1, with “SCC-4” for “SNU-899”

Yap1 mRNA [4] = test: Yap1 mRNA in SCC-25 cells, RNA analysis (Example 42); assay type: cell-based, human; conditions: free uptake, approximately 48 hours
Procedure: (§2) Modified oligonucleotides described in the studies above were tested at various doses in tongue squamous cell carcinoma cell line SCC-25. A control oligonucleotide 792169, described herein above, was also tested.
as §1, with “SCC-25” for “SNU-899”

SCC-25 cells = test: Cell proliferation assay in SCC-25 cells, CellTiter-Glo (Example 42); assay type: cell-based, human; conditions: free uptake, approximately 144 hours
Procedure: as §2
Cultured SCC-25 cells at a density of 1000 cells/well were treated using free uptake with modified oligonucleotides diluted to concentrations described in the tables below. After approximately 144 hours, cell proliferation was measured using the luminescent cell viability CellTiter-Glo® 2.0 Assay (Promega). Results are presented in the tables below as percent control of the amount of luminescence in samples treated with modified oligonucleotides relative to untreated control cells (% UTC).

Yap1 mRNA [5] = test: Yap1 mRNA in UPCI:SCC090 cells, RNA analysis (Example 47); assay type: cell-based, human; conditions: free uptake, approximately 48 hours
Procedure: Modified oligonucleotides described in the studies above were tested at various doses in tongue squamous cell carcinoma cell line UPCI:SCC090. A control oligonucleotide 792169, described herein above, was also tested.
as §1, with “UPCI:SCC090” for “SNU-899”

Yap1 mRNA [6] = test: Yap1 mRNA in BICR-22 cells, RNA analysis (Example 35); assay type: cell-based, human; conditions: free uptake, approximately 48 hours
Procedure: Modified oligonucleotides described in the studies above were tested at various doses in tongue squamous carcinoma (lymph node metastasis) cell line BICR-22. A control oligonucleotide 792169, described herein above, was also tested.
as §1, with “BICR-22” for “SNU-899”

[7] = Tolerability in CD-1 mice, plasma chemistry markers (Example 19); assay type: in vivo; conditions: male CD-1 mice, 50 mg/kg s.c. twice a week for four weeks (8 treatments), day 26
Procedure: CD-1 mice were treated with modified oligonucleotides selected from studies described above and evaluated for changes in the levels of various plasma chemistry markers.
Groups of four male CD-1 mice at 4-6 weeks of age (obtained from Charles River) were injected subcutaneously twice a week for four weeks (for a total of 8 treatments) with 50 mg/kg of modified oligonucleotides. One group of male CD-1 mice was injected with PBS. Mice were euthanized on day 26 post start of treatment (24 hrs following the final administration).

Row | Substance | human Yap1 mRNA expression (Yap1 mRNA [1]; 0.04 μM) [% UTC] | human Yap1 mRNA expression (Yap1 mRNA [1]; 0.2 μM) [% UTC] | human Yap1 mRNA expression (Yap1 mRNA [1]; 1 μM) [% UTC] | human Yap1 mRNA expression (Yap1 mRNA [1]; 5 μM) [% UTC] | human Yap1 mRNA expression (Yap1 mRNA [2]; 0.04 μM) [% UTC] | human Yap1 mRNA expression (Yap1 mRNA [2]; 0.2 μM) [% UTC] | human Yap1 mRNA expression (Yap1 mRNA [2]; 1 μM) [% UTC] | human Yap1 mRNA expression (Yap1 mRNA [2]; 5 μM) [% UTC] | human Yap1 mRNA expression (Yap1 mRNA [3]; 0.04 μM) [% UTC] | human Yap1 mRNA expression (Yap1 mRNA [3]; 0.2 μM) [% UTC] | human Yap1 mRNA expression (Yap1 mRNA [3]; 1 μM) [% UTC] | human Yap1 mRNA expression (Yap1 mRNA [3]; 5 μM) [% UTC] | human Yap1 mRNA expression (Yap1 mRNA [4]; 0.08 μM) [% UTC] | human Yap1 mRNA expression (Yap1 mRNA [4]; 0.4 μM) [% UTC] | human Yap1 mRNA expression (Yap1 mRNA [4]; 2 μM) [% UTC] | human Yap1 mRNA expression (Yap1 mRNA [4]; 10 μM) [% UTC] | Antiproliferative effect (cell proliferation, luminescence) (SCC-25 cells; 0.08 μM) [% UTC] | Antiproliferative effect (cell proliferation, luminescence) (SCC-25 cells; 0.4 μM) [% UTC] | Antiproliferative effect (cell proliferation, luminescence) (SCC-25 cells; 2 μM) [% UTC] | Antiproliferative effect (cell proliferation, luminescence) (SCC-25 cells; 10 μM) [% UTC] | other results
1 | 715487 (kA*kT*kT*dA*d[5mC]*dT*dT*d[5mC]*dA*dT*dA*dG*d[5mC]*kT*kT*kA) [compound 715487] | 62 | 26 | 9 | 4 | 83 | 70 | 49 | 30 | 81 | 46 | 23 | 13 | 70 | 32 | 16 | 11 | 82 | 48 | 25 | 15 | human Yap1 mRNA expression (Yap1 mRNA [5]; 0.04 μM): 70 % UTC; human Yap1 mRNA expression (Yap1 mRNA [5]; 0.2 μM): 37 % UTC; human Yap1 mRNA expression (Yap1 mRNA [5]; 1 μM): 26 % UTC; human Yap1 mRNA expression (Yap1 mRNA [5]; 5 μM): 14 % UTC; human Yap1 mRNA expression (Yap1 mRNA [6]; 0.04 μM): 82 % UTC; human Yap1 mRNA expression (Yap1 mRNA [6]; 0.2 μM): 45 % UTC; human Yap1 mRNA expression (Yap1 mRNA [6]; 1 μM): 23 % UTC; human Yap1 mRNA expression (Yap1 mRNA [6]; 5 μM): 13 % UTC
2 | 1198439 (AGTGTATGTCAGAAGA; sugar, 5-methylcytosine, phosphorothioate modifications, further chemistry not given here) [compound 1198439] | – | – | – | – | – | – | – | – | – | – | – | – | – | – | – | – | – | – | – | – | ALT [7]: 210 U/L; AST [7]: 219 U/L; BUN [7]: 18 mg/dL; TBIL [7]: 0.25 mg/dL
3 | 1198440 (AAGTGTATGTCAGAAG; cEt, 2'-MOE, 5-methylcytosine, phosphorothioate modifications, further chemistry not given here) [compound 1198440] | 35 | 12 | 3 | 2 | 73 | 53 | 21 | 9 | 63 | 27 | 11 | 5 | 32 | 12 | 8 | 7 | 56 | 27 | 20 | 16 | ALT [7]: 121 U/L; AST [7]: 140 U/L; BUN [7]: 19 mg/dL; TBIL [7]: 0.22 mg/dL; human Yap1 mRNA expression (Yap1 mRNA [5]; 0.04 μM): 60 % UTC; human Yap1 mRNA expression (Yap1 mRNA [5]; 0.2 μM): 26 % UTC; human Yap1 mRNA expression (Yap1 mRNA [5]; 1 μM): 10 % UTC; human Yap1 mRNA expression (Yap1 mRNA [5]; 5 μM): 5 % UTC; human Yap1 mRNA expression (Yap1 mRNA [6]; 0.04 μM): 44 % UTC; human Yap1 mRNA expression (Yap1 mRNA [6]; 0.2 μM): 14 % UTC; human Yap1 mRNA expression (Yap1 mRNA [6]; 1 μM): 4 % UTC; human Yap1 mRNA expression (Yap1 mRNA [6]; 5 μM): 4 % UTC
4 | CGCCGATAAGGTACAC (cEt gapmer, phosphorothioate backbone, further chemistry not given here) [ION 792169, reference compound] | 106 | 106 | 111 | 102 | 94 | 83 | 87 | 100 | 92 | 106 | 105 | 104 | 87 | 87 | 89 | 86 | 97 | 101 | 96 | 92 | human Yap1 mRNA expression (Yap1 mRNA [5]; 0.04 μM): 100 % UTC; human Yap1 mRNA expression (Yap1 mRNA [5]; 0.2 μM): 108 % UTC; human Yap1 mRNA expression (Yap1 mRNA [5]; 1 μM): 112 % UTC; human Yap1 mRNA expression (Yap1 mRNA [5]; 5 μM): 84 % UTC; human Yap1 mRNA expression (Yap1 mRNA [6]; 0.04 μM): 99 % UTC; human Yap1 mRNA expression (Yap1 mRNA [6]; 0.2 μM): 98 % UTC; human Yap1 mRNA expression (Yap1 mRNA [6]; 1 μM): 98 % UTC; human Yap1 mRNA expression (Yap1 mRNA [6]; 5 μM): 98 % UTC
5 | 1198872 (TGTATGTCAGAAGAGT; chemically modified gapmer, further chemistry not given here) [compound 1198872] | – | – | – | – | – | – | – | – | – | – | – | – | – | – | – | – | – | – | – | – | ALT [7]: 192 U/L; AST [7]: 207 U/L; BUN [7]: 22 mg/dL; TBIL [7]: 0.25 mg/dL
